Experimental data reported in patent publication US7527971B2, “Adult stem cell lines” (Vitro Diagnostics, Inc., priority 2004, dated 2009).
Ends that are not written are not given here.

Columns and labels:
[1] = system: VIT4-G9 cells; assay: Insulin secretion from VIT4-G9 cultures after growth/differentiation conditions; type: cell-based, human
Procedure: ILCC were examined to determine the level of insulin content and its secretion by use an immunoassay specific to human insulin (Linco Research, Catalog Number EZHI-14K). Since the growth medium contains recombinant human insulin, tissues were extensively washed with PBS prior to determination of secretion. ILCC were acutely maintained in a physiological saline solution (140 mM NaCl, 5 mM KCl, 5 mM CaCl2, 0.5% BSA, 1 mM sodium pyruvate, 2 mM glucose, and 10 mM HEPES, pH 7.4). […] The control solution contained 2 mM glucose, the elevated glucose solution was identical but contained 20 mM glucose, and the elevated K^+ solution contained 50 mM K^+, while the other constituents were identical to the control solution. The physiological saline solution was collected following centrifugation (10 minutes at 470×g) and frozen at −20° C. for later analysis. The remaining ILCC were lyzed in 10 mM Tris, 1 mM EDTA and 10% glycerol; the pellet was extracted overnight at 4° C. in 70% ethanol, 0.18 mM HCl and the extract was dried using Model DNA 110 Speed Vac (Savant, Inc.). The dried extract was reconstituted in 100 μl PBS prior to assay for insulin content. […] For example, glucose-stimulated insulin secretion requires expression of functional glucose transporter protein and glucokinase in addition to insulin. […]

[2] = system: VIT1 cells; assay: IHC analysis of insulin or Ep-CAM positive cells in VIT1 culture exposed to nicotinamide; type: cell-based, human; conditions: 10 mM nicotinamide, 5-day exposure
[3] = system: VIT4-G9 cells; assay: Effect of nicotinamide on prevalence of ILCC in VIT4-G9 cultures; type: cell-based, human; conditions: 10 mM nicotinamide
Source text: A general principle of developmental cell biology is that cellular differentiation and growth are at least partially exclusive of each other. High rates of cellular proliferation usually occur in the absence of differentiation, while differentiation usually requires quiescence or low rates of cell proliferation. Initial observations of the clonal cell line VIT4-G9 were consistent with this concept since pancreatic hormone-containing ILCC only appeared at later stages of culture following slower cell growth as a consequence of confluence and possibly contact inhibition.

[4] = system: VIT1 cells; assay: Induction of ILCC, insulin and Ep-CAM in VIT1 cells by GLP-1 (IHC); type: cell-based, human
Procedure: VIT1 cells were cultured and expanded through multiple passages as described in Example 2, “Cell Growth Analysis”. The culture medium used for expansion was VitroPlus II, (Vitro Diagnostics, Inc, Catalog Number VC03014) containing 10 nM GLP-1 (1-37) (Bachem, Catalog Number H-5552). Different cultures were expanded for 11 to 20 days encompassing two to five passages prior to immunohistochemical determination of insulin or Ep-CAM. A negative control culture that was expanded in VitroPlus II without added GLP-1 through 6 passages (24 days) prior to IHC determination of insulin. Insulin and Ep-CAM presence within these cultures was determined by fixation of the cultured cells in 1% glutaraldehyde, overnight incubation with insulin MAB (Sigma Chemical Co, Catalog Number I2018) at 1/1000 dilution in PBS or Ep-CAM, (Epithelial Specific Antigen) MAB (Biogenesis, Catalog Number 4240-4009) at 1/200 dilution in PBS followed by washout and incubation with an HRP-conjugated secondary antibody (Goat-anti-mouse-HRP (Jackson ImmunoResearch Laboratories, Inc., Catalog Number 115-035-062) at 37° C. for 30 minutes. Following washout of the secondary antibody, the fixed cells were then incubated for 15 minutes in diaminobenzidine (Sigma Chemical Co, Catalog Number D-4293), and the stained cultures were examined by phase-contrast microscopy and photographed. […]

[5] = system: primary cultures of dispersed human pancreatic cells; assay: Effect of HGF on ILCC growth and morphology in primary cultures; type: cell-based
Procedure: The effects of hepatocyte growth factor (HGF; PeproTech, Inc. Catalog Number 100-39) were determined by addition to the growth medium described above at a final concentration of 30 ng/ml. […] The acute effects of HGF on ILCC growth and morphology were determined and longer-term experiments were conducted as follows. The sample consisted of a cryopreserved, non-settled fraction of cells resulting from sub-culture of ILCC from the first passage of the culture of human pancreatic dispersed cells prepared as described above. The frozen cells were rapidly thawed, cryopreservative was washed out and the cells were plated at 10,000/cm^2 during the second passage. Cultures were exposed to 30 ng/ml HGF or control medium without added HGF and the cultures were expanded through 4 passages. Thereafter, both the control and HGF cultures were maintained and expanded through 8 passages using growth medium without added HGF. The number of ILCC in these cultures was determined by microscopic inspection.
To determine if ILCC cultures were affected by environmental conditions, the effect of HGF exposure was determined as described above (See: Methods). HGF is known to be mitogenic to beta cells, increases beta cell mass and total insulin production in vivo (Gracia-Ocana, et. al, 2000). HGF is also a known survival factor for a variety of cells (Dai, et. al, 2003). […]

Molecule: NC(=O)c1cccnc1 [nicotinamide]
- Glucose-stimulated insulin secretion: requirement in differentiation phase ([1]; 10 mM nicotinamide in 0.5% FBS VitroPlus II, 6 days): necessary
- Number of insulin or Ep-CAM positive cells by IHC [2]: did not appear to change
- Increase in prevalence of ILCC [3]: about 5 fold

Molecule: glucagon-like peptide 1 (HAEGTFTSDVSSYLEGQAAKEFIAWLVKGR; ends and bridges not checked; UniProt P01275 98-127, looked up) [GLP-1, GLP-1 (1-37) (Bachem, Catalog Number H-5552)]
- Glucose-stimulated insulin secretion: requirement during growth phase ([1]; GLP-1 in VitroPlus II, 5 days): necessary
- Ep-CAM expression by IHC ([4]; 10 nM GLP-1): induced
- Reduction of ILCC frequency in negative control culture lacking GLP-1 ([4]; 10 nM GLP-1 in VitroPlus II versus no GLP-1): thousand-fold

Molecule: hepatocyte growth factor [HGF]
- Increase in number of ILCC ([5]; 30 ng/ml HGF during passages 2 through 4, counted at early pass 7): ~5 fold
- Morphology of ILCC ([5]; 30 ng/ml HGF, short time of exposure, reversed when HGF removed): shift in the morphology of ILCC from larger islets containing small cells to more loosely attached, smaller islets composed of larger cells
